In patent publication US9296725B2, “Heterocyclyl pyrimidine analogues as TYK2 inhibitors” (Cellzome Limited, priority 2012, dated 2016):

What was measured:
JAK2 = target: T1, JAK2 (Homo sapiens, UniProt O60674); test: Kinobeads assay, JAK2 (competition binding in mixed Molt4/Ramos cell lysate, dot blot detection); settings: read-out: JAK2 Band (Kinobeads assay potency, IC50)
T1 construct: endogenous in cells; host or cells: Molt4 (ATCC CRL-1582) and Ramos (ATCC CRL-1596), mixed lysate 1:2
Procedure: (§1) The compounds of the present invention as described in the previous examples were tested in a Kinobeads™ assay as described for ZAP-70 (WO-A 2007/137867). Briefly, test compounds (at various concentrations) and the affinity matrix with the immobilized aminopyrido-pyrimidine ligand 24 were added to cell lysate aliquots and allowed to bind to the proteins in 10 the lysate sample. After the incubation time the beads with captured proteins were separated from the lysate. Bound proteins were then eluted and the presence of TYK2 and JAK2 was detected and quantified using specific antibodies in a dot blot procedure and the Odyssey infrared detection system. Dose response curves for individual kinases were generated and IC50 values calculated. Kinobeads™ assays have been previously described (WO-A 2007/137867; WO-A 2006/134056).
(§2) The affinity matrix was washed two times with 15 mL of 1×DP buffer containing 0.2% NP40 (IGEPAL® CA-630, Sigma, #13021) and then resuspended in 1×DP buffer containing 0.2% NP40 (3% beads slurry). 5×DP buffer: 250 mM Tris-HCl pH 7.4, 25% Glycerol, 7.5 mM MgCl2, 750 mM NaCl, 5 mM Na3VO4; filter the 5×DP buffer through a 0.22 μm filter and store in aliquots at −80° C. The 5×DP buffer is diluted with H2O to 1×DP buffer containing 1 mM DTT and 25 mM NaF.
(§3) Stock solutions of test compounds were prepared in DMSO. In a 96 well plate 30 μL solution of diluted test compounds at 5 mM in DMSO were prepared. Starting with this solution a 1:3 dilution series (9 steps) was prepared. For control experiments (no test compound) a buffer containing 2% DMSO was used.
(§4) Molt4 cells (ATCC catalogue number CRL-1582) and Ramos cells (ATCC catalogue number CRL-1596) were grown in 1 L Spinner flasks (Integra Biosciences, #182101) in suspension in RPMI 1640 medium (Invitrogen, #21875-034) supplemented with 10% Fetal Bovine Serum (Invitrogen) at a density between 0.15×10^6 and 1.2×10^6 cells/mL. Cells were harvested by centrifugation, washed once with 1×PBS buffer (Invitrogen, #14190-094) and cell pellets were frozen in liquid nitrogen and subsequently stored at −80° C. Cells were homogenized in a Potter S homogenizer in lysis buffer: 50 mM Tris-HCl, 0.8% NP40, 5% glycerol, 150 mM NaCl, 1.5 mM MgCl2, 25 mM NaF, 1 mM sodium vanadate, 1 mM DTT, pH 7.5. One complete EDTA-free tablet (protease inhibitor cocktail, Roche Diagnostics, 1873580) per 25 mL buffer was added. The material was dounced 10 times using a mechanized POTTER S, transferred to 50 mL falcon tubes, incubated for 30 minutes on ice and spun down for 10 minutes at 20,000 g at 4° C. (10,000 rpm in Sorvall SLA600, precooled). The supernatant was transferred to an ultracentrifuge (UZ)-polycarbonate tube (Beckmann, 355654) and spun for 1 hour at 100.000 g at 4° C. (33.500 rpm in Ti50.2, precooled). The supernatant was transferred again to a fresh 50 mL falcon tube, the protein concentration was determined by a Bradford assay (BioRad) and samples containing 50 mg of protein per aliquot were prepared. The samples were immediately used for experiments or frozen in liquid nitrogen and stored frozen at −80° C.
(§5) Cell lysate (approximately 50 mg protein per plate) was thawed in a water bath at room temperature and then stored on ice. To the thawed cell lysate 1×DP 0.8% NP40 buffer containing protease inhibitors (1 tablet for 25 mL buffer; EDTA-free protease inhibitor cocktail; Roche Diagnostics 1873580) was added in order to reach a final protein concentration of 10 mg/mL total protein. The diluted cell lysate was stored on ice. Mixed Molt4/Ramos lysate was prepared by combining one volume of Molt4 lysate and two volumes of Ramos lysate (ratio 1:2).
(§6) To a 96 well filter plate (Multiscreen HTS, BV Filter Plates, Millipore #MSBVN1250) were added per well: 100 μL affinity matrix (3% beads slurry), 3 μL of compound solution, and 50 μL of diluted lysate. Plates were sealed and incubated for 3 hours in a cold room on a plate shaker (Heidolph tiramax 1000) at 750 rpm. […]

TYK2 = target: T2, TYK2 (Homo sapiens, UniProt P29597); test: Kinobeads assay, TYK2 (competition binding in mixed Molt4/Ramos cell lysate, dot blot detection); settings: Kinobeads assay, Molt4/Ramos lysate; read-out: TYK2 Band (Kinobeads assay potency, IC50)
T2 construct: endogenous in cells; host or cells: Molt4 (ATCC CRL-1582) and Ramos (ATCC CRL-1596), mixed lysate 1:2
T2 sequence (P29597 whole entry): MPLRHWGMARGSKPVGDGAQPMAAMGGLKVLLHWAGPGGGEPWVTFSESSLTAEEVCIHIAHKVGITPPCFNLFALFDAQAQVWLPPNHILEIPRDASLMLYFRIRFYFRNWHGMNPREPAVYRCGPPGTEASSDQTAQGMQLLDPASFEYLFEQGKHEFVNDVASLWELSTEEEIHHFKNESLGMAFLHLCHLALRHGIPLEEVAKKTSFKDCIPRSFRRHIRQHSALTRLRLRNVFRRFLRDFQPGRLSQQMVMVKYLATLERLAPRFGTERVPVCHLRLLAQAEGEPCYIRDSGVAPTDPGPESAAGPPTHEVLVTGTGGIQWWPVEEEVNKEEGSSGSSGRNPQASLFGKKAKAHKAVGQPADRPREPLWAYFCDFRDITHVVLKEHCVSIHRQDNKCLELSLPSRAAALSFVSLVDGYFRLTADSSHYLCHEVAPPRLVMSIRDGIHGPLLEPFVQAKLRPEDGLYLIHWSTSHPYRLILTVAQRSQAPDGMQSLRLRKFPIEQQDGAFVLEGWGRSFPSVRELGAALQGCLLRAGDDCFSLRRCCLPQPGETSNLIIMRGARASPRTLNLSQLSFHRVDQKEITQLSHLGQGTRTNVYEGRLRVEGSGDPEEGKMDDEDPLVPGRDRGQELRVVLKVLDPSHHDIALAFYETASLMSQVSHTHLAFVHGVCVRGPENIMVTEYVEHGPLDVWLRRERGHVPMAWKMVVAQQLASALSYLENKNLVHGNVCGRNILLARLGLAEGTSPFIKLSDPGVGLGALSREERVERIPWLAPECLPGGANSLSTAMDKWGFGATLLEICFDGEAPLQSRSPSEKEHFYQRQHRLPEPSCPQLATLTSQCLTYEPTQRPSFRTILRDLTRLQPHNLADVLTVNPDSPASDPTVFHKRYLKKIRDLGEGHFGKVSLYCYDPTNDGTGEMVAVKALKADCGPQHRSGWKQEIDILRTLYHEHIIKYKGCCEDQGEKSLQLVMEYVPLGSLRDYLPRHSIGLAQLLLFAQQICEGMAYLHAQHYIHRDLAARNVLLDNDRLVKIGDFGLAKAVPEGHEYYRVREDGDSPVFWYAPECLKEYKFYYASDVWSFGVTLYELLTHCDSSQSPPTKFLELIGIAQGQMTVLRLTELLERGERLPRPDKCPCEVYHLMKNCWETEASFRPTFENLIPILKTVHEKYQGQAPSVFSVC
Procedure: as §1, §2, §3, §4, §5, §6

T1 sequence (O60674 whole entry): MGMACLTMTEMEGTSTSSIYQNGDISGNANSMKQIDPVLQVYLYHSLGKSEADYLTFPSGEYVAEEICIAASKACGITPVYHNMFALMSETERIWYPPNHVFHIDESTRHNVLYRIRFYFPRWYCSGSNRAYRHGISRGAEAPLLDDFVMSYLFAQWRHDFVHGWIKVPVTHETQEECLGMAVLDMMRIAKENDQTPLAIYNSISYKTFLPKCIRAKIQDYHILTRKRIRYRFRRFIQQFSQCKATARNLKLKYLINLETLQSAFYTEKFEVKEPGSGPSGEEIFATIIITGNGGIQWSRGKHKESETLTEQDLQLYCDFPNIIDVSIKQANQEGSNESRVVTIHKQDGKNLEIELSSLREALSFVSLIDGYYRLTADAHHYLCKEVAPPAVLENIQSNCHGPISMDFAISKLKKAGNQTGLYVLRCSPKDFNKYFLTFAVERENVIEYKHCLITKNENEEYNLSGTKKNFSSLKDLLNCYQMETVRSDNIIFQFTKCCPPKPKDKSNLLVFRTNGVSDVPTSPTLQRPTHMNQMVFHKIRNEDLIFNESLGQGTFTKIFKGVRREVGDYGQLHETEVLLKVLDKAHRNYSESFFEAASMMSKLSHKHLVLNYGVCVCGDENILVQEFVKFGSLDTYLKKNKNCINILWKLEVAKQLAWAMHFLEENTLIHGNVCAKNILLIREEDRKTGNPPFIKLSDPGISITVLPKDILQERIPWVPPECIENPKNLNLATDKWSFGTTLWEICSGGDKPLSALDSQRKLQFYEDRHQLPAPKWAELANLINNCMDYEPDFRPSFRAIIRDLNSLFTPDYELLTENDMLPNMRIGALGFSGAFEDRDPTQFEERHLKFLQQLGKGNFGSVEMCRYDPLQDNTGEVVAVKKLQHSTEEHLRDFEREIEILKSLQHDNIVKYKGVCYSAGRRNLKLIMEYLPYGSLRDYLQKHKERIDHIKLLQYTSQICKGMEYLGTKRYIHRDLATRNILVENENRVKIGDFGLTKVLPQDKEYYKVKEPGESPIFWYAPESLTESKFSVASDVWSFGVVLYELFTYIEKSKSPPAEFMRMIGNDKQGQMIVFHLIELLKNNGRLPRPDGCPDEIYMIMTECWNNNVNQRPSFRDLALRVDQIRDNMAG

| Structure (SMILES) | IC50 (JAK2) [nM] | IC50 (TYK2) [nM] |
| --- | --- | --- |
| CS(=O)(=O)c1ccc(F)c(CNc2nc(Nc3cnn(CCO)c3)ncc2F)c1 [Example I-115] | 1000 to 10000 | 10 to 100 |
| CCOc1ccc(F)c(CNc2nc(Nc3cnn(CC(=O)NC)c3)ncc2Cl)c1F [Example I-269] | 1000 to 10000 | 10 to 100 |
| COc1ccc(F)c(CNc2nc(Nc3cnn(CC(=O)NC(C)C)c3)ncc2Cl)c1F [Example I-427] | 1000 to 10000 | 10 to 100 |
| O=C(Cn1cc(Nc2ncc(Cl)c(NCc3ccccc3)n2)cn1)N1CCNCC1 [Example I-187] | 100 to 1000 | 10 to 100 |
| O=C(Cn1cc(Nc2nccc(NCc3c(F)cc(F)cc3F)n2)cn1)NCC(F)F [Example I-92] | 1000 to 10000 | 10 to 100 |
| CC1(C)COCCN1C(=O)Cn1cc(Nc2nccc(NCc3c(F)cc(F)cc3F)n2)cn1 [Example I-459] | > 10000 | 10 to 100 |
| Cc1cnc(Nc2cnn(CC(=O)N3CCOCC3)c2)nc1NCc1c(F)cc(F)cc1F [Example I-21] | 1000 to 10000 | ≤ 10 |
| O=C(Cn1cc(Nc2ncc(Cl)c(NCc3ccccc3)n2)cn1)N1CC2COCC2C1 (stereo not drawn) [Example I-188] | 1000 to 10000 | 10 to 100 |
| CNC(=O)Cn1cc(Nc2ncc(C)c(NCc3cc(F)cc(F)c3)n2)cn1 [Example I-354] | 100 to 1000 | 100 to 1000 |
| Cn1cc(Nc2ncc(F)c(NCc3cc(F)ccc3S(C)(=O)=O)n2)cn1 [Example I-487] | 100 to 1000 | 100 to 1000 |
| CS(=O)(=O)c1ccc(F)cc1CNc1nc(Nc2cn[nH]c2)ncc1Cl [Example I-72] | 100 to 1000 | 10 to 100 |
| CNC(=O)Cn1cc(Nc2ncc(F)c(NCc3cc(S(C)(=O)=O)ccc3OC)n2)cn1 [Example I-448] | 1000 to 10000 | 10 to 100 |
| O=C(Cn1cc(Nc2ncc(Cl)c(NCc3cccc(F)c3F)n2)cn1)N1CCOCC1 [Example I-178] | 100 to 1000 | 10 to 100 |
| N#C[C@@H]1CCCN1C(=O)Cn1cc(Nc2ncc(Cl)c(NCc3ccccc3)n2)cn1 [Example I-272] | 1000 to 10000 | 100 to 1000 |
| Cn1cc(Nc2ncc(Cl)c(NCc3cccc(S(N)(=O)=O)c3)n2)cn1 [Example I-198] | 1000 to 10000 | 100 to 1000 |
| Cc1ccc(F)c(CNc2nc(Nc3cnn(CC(=O)N(C)C)c3)ncc2Cl)c1F [Example I-283] | 1000 to 10000 | 10 to 100 |
| CN(C)CCNC(=O)Cn1cc(Nc2ncc(Cl)c(NCc3ccccc3)n2)cn1 [Example I-221] | 100 to 1000 | 100 to 1000 |
| COc1ccc(F)c(CNc2nc(Nc3cnn(CC(=O)N4CCOCC4)c3)ncc2F)c1F [Example I-24] | 1000 to 10000 | ≤ 10 |
| CNC(=O)Cn1cc(Nc2ncc(Cl)c(NCc3cc(F)cc(F)c3)n2)cn1 [Example I-190] | 100 to 1000 | 100 to 1000 |
| CNC(=O)Cn1cc(Nc2ncc(Cl)c(NCc3c(F)cccc3F)n2)cn1 [Example I-229] | 1000 to 10000 | 10 to 100 |
| Cn1cc(Nc2ncc(Cl)c(NCc3cccc(F)c3F)n2)cn1 [Example I-179] | 100 to 1000 | 100 to 1000 |
| CC(C)NC(=O)Cn1cc(Nc2ncc(F)c(NCc3cccc(OC(F)F)c3)n2)cn1 [Example I-45] | > 10000 | 10 to 100 |
| CCOC(=O)Cn1cc(Nc2ncc(F)c(NCc3c(F)ccc(OC)c3F)n2)cn1 [Example I-53] | 1000 to 10000 | 10 to 100 |
| N#CC1CCCN1C(=O)Cn1cc(Nc2ncc(Cl)c(NCc3ccccc3)n2)cn1 (stereo not drawn) [Example I-237] | 100 to 1000 | 10 to 100 |

| Structure (SMILES) | IC50 (JAK2) [nM] | IC50 (TYK2) [nM] |
| --- | --- | --- |
| N#CC1CN(C(=O)Cn2cc(Nc3ncc(Cl)c(NCc4ccccc4)n3)cn2)C1 [Example I-274] | 1000 to 10000 | 10 to 100 |
| Fc1ccc(F)c(CNc2nc(Nc3cnn(CC(F)F)c3)ncc2Cl)c1F [Example I-336] | 100 to 1000 | 10 to 100 |
| CC(O)Cn1cc(Nc2ncc(Cl)c(NCc3ccccc3)n2)cn1 (stereo not drawn) [Example I-216] | 1000 to 10000 | 100 to 1000 |
| COc1ccc(S(C)(=O)=O)cc1CNc1nc(Nc2cnn(C)c2)ncc1Cl [Example I-449] | 100 to 1000 | 10 to 100 |
| NC(=O)Cn1cc(Nc2ncc(Cl)c(NCc3c(F)cccc3F)n2)cn1 [Example I-240] | 1000 to 10000 | 10 to 100 |
| COc1ccc(Cl)c(CNc2nc(Nc3cnn(CC(=O)N4CCOCC4)c3)ncc2F)c1F [Example I-81] | 100 to 1000 | ≤ 10 |
| Cc1cnc(Nc2cnn(C)c2)nc1NCc1c(F)cc(S(N)(=O)=O)cc1F [Example I-43] | 100 to 1000 | 10 to 100 |
| COc1ccc(F)c(CNc2nc(Nc3cnn(CCOC(C)C)c3)ncc2F)c1F [Example I-394] | > 10000 | 100 to 1000 |
| OCCn1cc(Nc2ncc(Cl)c(NCc3ccc(C(F)(F)F)cc3F)n2)cn1 [Example I-245] | 10 to 100 | 1000 to 10000 |
| CN(C)C(=O)Cn1cc(Nc2ncc(F)c(NCc3cccc(OC(F)F)c3)n2)cn1 [Example I-14] | 1000 to 10000 | 10 to 100 |
| OCCn1cc(Nc2ncc(F)c(NCc3cccc(F)c3)n2)cn1 [Example I-210] | 100 to 1000 | 10 to 100 |
| O=C(Cn1cc(Nc2nccc(NCc3c(F)cc(F)cc3F)n2)cn1)N[C@H]1CCOC1 [Example I-138] | 1000 to 10000 | 10 to 100 |
| COc1ccc(F)c(CNc2nc(Nc3cnn(CC(=O)NC(C)C)c3)ncc2F)c1F [Example I-48] | 1000 to 10000 | ≤ 10 |
| CC(C)NC(=O)Cn1cc(Nc2ncc(F)c(NCc3c(Cl)ccc(Cl)c3F)n2)cn1 [Example I-82] | 100 to 1000 | 10 to 100 |
| CN(Cc1cccc(CNc2nc(Nc3cnn(CC(=O)N4CCOCC4)c3)ncc2Cl)c1)S(C)(=O)=O [Example I-401] | 1000 to 10000 | 100 to 1000 |
| CNS(=O)(=O)c1ccccc1CNc1nc(Nc2cnn(CCO)c2)ncc1Cl [Example I-472] | 100 to 1000 | 10 to 100 |
| NS(=O)(=O)c1cccc(CNc2nc(Nc3cnn(CCO)c3)ncc2Cl)c1 [Example I-199] | 1000 to 10000 | 100 to 1000 |
| COc1ccccc1CNc1nc(Nc2cnn(CC(N)=O)c2)ncc1Cl [Example I-321] | 1000 to 10000 | 100 to 1000 |
| O=C(O)Cn1cc(Nc2ncc(Cl)c(NCc3c(F)cccc3F)n2)cn1 [Example I-165] | 1000 to 10000 | 10 to 100 |
| O=C(Cn1cc(Nc2nccc(NCc3c(F)cc(F)cc3F)n2)cn1)N[C@@H]1C[C@@H]1F [Example I-102] | 1000 to 10000 | ≤ 10 |
| CNS(=O)(=O)c1cccc(CNc2nc(Nc3cnn(C)c3)ncc2Cl)c1 [Example I-200] | 1000 to 10000 | 100 to 1000 |
| CNC(=O)Cn1cc(Nc2ncc(Cl)c(NCc3cccc(F)c3F)n2)cn1 [Example I-208] | 100 to 1000 | 100 to 1000 |
| CC(C)NC(=O)Cn1cc(Nc2nccc(NCc3c(F)cc(C#N)cc3F)n2)cn1 [Example I-1, 2-(4-((4-((4-cyano-2,6-difluorobenzyl)amino)pyrimidin-2-yl)amino)-1H-pyrazol-1-yl)-N-isopropylacetamide] | 1000 to 10000 | 10 to 100 |
| COc1ccc(Cl)c(CNc2ccnc(Nc3cnn(CC(=O)NC(C)C)c3)n2)c1F [Example I-79] | 1000 to 10000 | ≤ 10 |
